Laboratory results reported in ChEMBL document CHEMBL1909294, “Translating clinical findings into knowledge in drug safety evaluation--drug induced liver injury prediction system (DILIps)” (PLoS Comput Biol, 2011).
*1 amine or outer side, *2 acyl side, *3 side chain or, on linkers, in order; H or OH if unused. Where a SMILES comes first, the peptide text is derived from it. Bridges are numbered along the chain shown (N, C = ends). [ ]: non-standard residue; d: D form. The star is where a group is joined. pTerphenylCO(4''-OnC5H11) = CCCCCOc1ccc(-c2ccc(-c3ccc(C(=O)*)cc3)cc2)cc1; Orn(4R-OH,5R-OH) = O=C([C@H](C[C@@H](O)[C@@H](O)N[*:3])N[*:1])[*:2]; hTyr(3S-OH,4S-OH) = N[C@H](C(=O)O)[C@H](O)[C@@H](O)c1ccc(O)cc1; Pro(3S-OH,4S-Me) = C[C@H]1CN[C@H](C(=O)O)[C@H]1O; Hyp = O=C(O)[C@@H]1C[C@@H](O)CN1

Columns and labels:
Hepatotoxicity [1] = test system: Hepatotoxicity;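 on HepSE Combined Scores: combined hepatic side effect score as listed in the training data of the Drug Induced Liver Injury Prediction System (DILIps)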;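 on HepSE cirrhosis: cirrhosis hepatic side effect score taken from the DILIps (drug-induced liver injury prediction) training set; call rule not given here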;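 on HepSE elevated liver function tests: hepatic side effect score for raised liver function tests, as recorded in the DILIps training set used for predicting drug-induced liver injury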;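 on HepSE hepatitis: Hepatitis-related hepatic side effect score taken from the training data of DILIps, a prediction system for drug-induced liver injury; call rule not given here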;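 on HepSE hepatomegaly: hepatic side effect score for hepatomegaly, taken from the training set of the DILIps drug-induced liver injury prediction system; call rule not given here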;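 on HepSE liver fatty: hepatic side effect score for fatty liver, taken from the DILIps training set for predicting drug-induced liver injury; call rule not given here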
Hepatotoxicity [2] = test system: Hepatotoxicity; remark: listed apart in the source;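 on HepSE Combined Scores: combined hepatic side effect score as listed in the training data of the Drug Induced Liver Injury Prediction System (DILIps)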;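 on HepSE cirrhosis: cirrhosis hepatic side effect score taken from the DILIps (drug-induced liver injury prediction) training set; call rule not given here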;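 on HepSE elevated liver function tests: hepatic side effect score for raised liver function tests, as recorded in the DILIps training set used for predicting drug-induced liver injury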;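 on HepSE hepatitis: Hepatitis-related hepatic side effect score taken from the training data of DILIps, a prediction system for drug-induced liver injury; call rule not given here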;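 on HepSE hepatomegaly: hepatic side effect score for hepatomegaly, taken from the training set of the DILIps drug-induced liver injury prediction system; call rule not given here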;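 on HepSE liver fatty: hepatic side effect score for fatty liver, taken from the DILIps training set for predicting drug-induced liver injury; call rule not given here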
Hepatotoxicity [3] = test system: Hepatotoxicity; remark: listed apart in the source;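 on HepSE Combined Scores: combined hepatic side effect score as listed in the training data of the Drug Induced Liver Injury Prediction System (DILIps)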;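 on HepSE cirrhosis: cirrhosis hepatic side effect score taken from the DILIps (drug-induced liver injury prediction) training set; call rule not given here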;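 on HepSE elevated liver function tests: hepatic side effect score for raised liver function tests, as recorded in the DILIps training set used for predicting drug-induced liver injury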;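 on HepSE hepatitis: Hepatitis-related hepatic side effect score taken from the training data of DILIps, a prediction system for drug-induced liver injury; call rule not given here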;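 on HepSE hepatomegaly: hepatic side effect score for hepatomegaly, taken from the training set of the DILIps drug-induced liver injury prediction system; call rule not given here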;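 on HepSE liver fatty: hepatic side effect score for fatty liver, taken from the DILIps training set for predicting drug-induced liver injury; call rule not given here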
Hepatotoxicity [4] = test system: Hepatotoxicity; remark: listed apart in the source;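 on HepSE Combined Scores: combined hepatic side effect score as listed in the training data of the Drug Induced Liver Injury Prediction System (DILIps)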;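 on HepSE cirrhosis: cirrhosis hepatic side effect score taken from the DILIps (drug-induced liver injury prediction) training set; call rule not given here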;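 on HepSE elevated liver function tests: hepatic side effect score for raised liver function tests, as recorded in the DILIps training set used for predicting drug-induced liver injury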;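 on HepSE hepatitis: Hepatitis-related hepatic side effect score taken from the training data of DILIps, a prediction system for drug-induced liver injury; call rule not given here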;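 on HepSE hepatomegaly: hepatic side effect score for hepatomegaly, taken from the training set of the DILIps drug-induced liver injury prediction system; call rule not given here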;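 on HepSE liver fatty: hepatic side effect score for fatty liver, taken from the DILIps training set for predicting drug-induced liver injury; call rule not given here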
Hepatotoxicity [5] = test system: Hepatotoxicity; remark: listed apart in the source
Hepatotoxicity [6] = test system: Hepatotoxicity; remark: listed apart in the source
Hepatotoxicity [7] = test system: Hepatotoxicity; remark: listed apart in the source
Hepatotoxicity [8] = test system: Hepatotoxicity; remark: listed apart in the source
Hepatotoxicity [9] = test system: Hepatotoxicity; remark: listed apart in the source
Hepatotoxicity [10] = test system: Hepatotoxicity; remark: listed apart in the source
Hepatotoxicity [11] = test system: Hepatotoxicity; remark: listed apart in the source
Hepatotoxicity [12] = test system: Hepatotoxicity; remark: listed apart in the source
Hepatotoxicity [13] = test system: Hepatotoxicity; remark: listed apart in the source
Hepatotoxicity [14] = test system: Hepatotoxicity; remark: listed apart in the source

Structure (SMILES) | HepSE_liver fatty (Hepatotoxicity [1]) | HepSE_hepatitis (Hepatotoxicity [2]) | HepSE_hepatomegaly (Hepatotoxicity [3]) | HepSE_elevated liver function tests (Hepatotoxicity [4]) | HepSE_cirrhosis (Hepatotoxicity [5]) | HepSE_bilirubinemia (Hepatotoxicity [6]) | HepSE_Combined Scores (Hepatotoxicity [7]) | HepSE_jaundice (Hepatotoxicity [8]) | HepSE_liver function tests abnormal (Hepatotoxicity [9]) | HepSE_liver disease (Hepatotoxicity [10]) | HepSE_hepatic necrosis (Hepatotoxicity [11]) | HepSE_cholecystitis (Hepatotoxicity [12]) | HepSE_cholelithiasis (Hepatotoxicity [13]) | HepSE_hepatic failure (Hepatotoxicity [14])
NCC(=O)CCC(=O)O [AMINOLEVULINIC ACID] | 0 | 0 | 0 | 0 | 0 | 0 | 0 | 0 | 0 | 0 | 0 | 0 | 0 | 0
Cn1c(=O)c2[nH]cnc2n(C)c1=O.Cn1c(=O)c2[nH]cnc2n(C)c1=O.NCCN [AMINOPHYLLINE] | 0 | 0 | 0 | 0 | 0 | 0 | 0 | 0 | 0 | 0 | 0 | 0 | 0 | 0
CN(C)CCC=C1c2ccccc2CCc2ccccc21 [AMITRIPTYLINE] | 0 | 1 | 0 | 0 | 0 | 0 | 3 | 1 | 0 | 0 | 0 | 0 | 0 | 1
CCOC(=O)C1=C(COCCN)NC(C)=C(C(=O)OC)C1c1ccccc1Cl (stereo not drawn) [AMLODIPINE] | 0 | 1 | 0 | 0 | 0 | 0 | 2 | 1 | 0 | 0 | 0 | 0 | 0 | 0
Cl.N [AMMONIUM CHLORIDE] | 0 | 0 | 0 | 0 | 0 | 0 | 0 | 0 | 0 | 0 | 0 | 0 | 0 | 0
Clc1ccc2c(c1)C(N1CCNCC1)=Nc1ccccc1O2 [AMOXAPINE] | 0 | 1 | 0 | 0 | 0 | 0 | 2 | 1 | 0 | 0 | 0 | 0 | 0 | 0
CC1(C)S[C@@H]2[C@H](NC(=O)[C@H](N)c3ccc(O)cc3)C(=O)N2[C@H]1C(=O)O [AMOXICILLIN] | 0 | 1 | 0 | 0 | 0 | 0 | 2 | 1 | 0 | 0 | 0 | 0 | 0 | 0
CC(N)Cc1ccccc1 (stereo not drawn) [AMPHETAMINE] | 0 | 0 | 0 | 0 | 0 | 0 | 0 | 0 | 0 | 0 | 0 | 0 | 0 | 0
C[C@@H]1[C@H](O)[C@@H](C)/C=C/C=C/C=C/C=C/C=C/C=C/C=C/[C@H](O[C@@H]2O[C@H](C)[C@@H](O)[C@H](N)[C@@H]2O)C[C@@H]2O[C@](O)(C[C@@H](O)C[C@@H](O)[C@H](O)CC[C@@H](O)C[C@@H](O)CC(=O)O[C@H]1C)C[C@H](O)[C@H]2C(=O)O [AMPHOTERICIN B] | 0 | 1 | 1 | 0 | 0 | 1 | 7 | 1 | 1 | 1 | 0 | 0 | 0 | 1
CC1(C)S[C@@H]2[C@H](NC(=O)[C@H](N)c3ccccc3)C(=O)N2[C@H]1C(=O)O [AMPICILLIN] | 0 | 0 | 0 | 0 | 0 | 0 | 0 | 0 | 0 | 0 | 0 | 0 | 0 | 0
COc1cc(NS(C)(=O)=O)ccc1Nc1c2ccccc2nc2ccccc12 [AMSACRINE] | 0 | 1 | 0 | 0 | 0 | 0 | 3 | 1 | 0 | 0 | 0 | 0 | 0 | 1
O=C1CN2Cc3c(ccc(Cl)c3Cl)N=C2N1 [ANAGRELIDE] | 0 | 0 | 0 | 1 | 0 | 0 | 1 | 0 | 0 | 0 | 0 | 0 | 0 | 0
CC(C)(C#N)c1cc(Cn2cncn2)cc(C(C)(C)C#N)c1 [ANASTROZOLE] | 0 | 1 | 0 | 1 | 0 | 0 | 2 | 0 | 0 | 0 | 0 | 0 | 0 | 0
CCCCCOc1ccc(-c2ccc(-c3ccc(C(=O)N[C@H]4C[C@@H](O)[C@@H](O)NC(=O)[C@@H]5[C@@H](O)[C@@H](C)CN5C(=O)[C@H]([C@@H](C)O)NC(=O)[C@H]([C@H](O)[C@@H](O)c5ccc(O)cc5)NC(=O)[C@@H]5C[C@@H](O)CN5C(=O)[C@H]([C@@H](C)O)NC4=O)cc3)cc2)cc1 [ANIDULAFUNGIN] ({pTerphenylCO(4''-OnC5H11)}-[Orn(4R-OH,5R-OH)]T[Hyp][hTyr(3S-OH,4S-OH)]T[Pro(3S-OH,4S-Me)]; lactam 1-C) | 0 | 0 | 0 | 0 | 0 | 0 | 2 | 0 | 1 | 0 | 1 | 0 | 0 | 0
CN1CCc2cccc3c2[C@H]1Cc1ccc(O)c(O)c1-3 [APOMORPHINE] | 0 | 0 | 0 | 0 | 0 | 0 | 0 | 0 | 0 | 0 | 0 | 0 | 0 | 0
Nc1cc(Cl)c(N=C2NCCN2)c(Cl)c1 [APRACLONIDINE] | 0 | 0 | 0 | 0 | 0 | 0 | 0 | 0 | 0 | 0 | 0 | 0 | 0 | 0
C[C@@H](O[C@H]1OCCN(Cc2n[nH]c(=O)[nH]2)[C@H]1c1ccc(F)cc1)c1cc(C(F)(F)F)cc(C(F)(F)F)c1 [APREPITANT] | 0 | 0 | 0 | 0 | 0 | 0 | 0 | 0 | 0 | 0 | 0 | 0 | 0 | 0
